In the OligoGym collection one finds target mRNA inhibition data, which are given here for 60 sequences.

Values joined by “and” are separate entries in the source; they are usually repeats but may differ in a detail not shown here. Equal values may be shown once. After the bases stand the sugars from the 5' end (letter, count) and the backbone: PS all phosphorothioate, else s phosphorothioate and o phosphodiester by linkage. Methylation of C is not given here. e = 2'-O-(2-methoxyethyl) (MOE); k = constrained ethyl (cEt); d = 2'-deoxy (DNA)

In the data set the target is IRF4. The conditions noted are these: ASO.

CCCTATCACTGCCAAG (sugars k3 d10 k3, PS): under “SK-MEL-28, 4 µM”, the target mRNA inhibition was 38%.

Regarding “CGTGTGCTTGCCAAGC (sugars kdddddddddkekeke, PS)”, the target mRNA inhibition (MM.1R, 1 µM) is 24% and 11%.

Consider TTACCGATGCTTCAAG (sugars k3 d10 k3, PS), for which the target mRNA inhibition (MM.1R, 1 µM) is 16% and 19%.

For ATAGGTATACTTAAGC (sugars k3 d10 k3, PS), where the note is “SK-MEL-28, 4 µM”, the target mRNA inhibition was 80% and 79%.

GCTCAACCAGTTCCTC (sugars k3 d10 k3, PS): under “SK-MEL-28, 4 µM”, the target mRNA inhibition amounted to 38%.

Regarding CAGGCGGACACGCCCG (sugars k3 d10 k3, PS), the target mRNA inhibition (MM.1R, 1 µM) was -5%.

For the sequence GGAGAGGCTGAGATAA (sugars k3 d10 k3, PS), the target mRNA inhibition (SK-MEL-28, 4 µM) turned out to be 29%.

Turning to TATTTATGAGCTTCCA (sugars k3 d10 k3, PS), the target mRNA inhibition (MM.1R, 1 µM) amounted to 21%.

Take GTCACTTACACCCAGA (sugars k3 d10 k3, PS): the target mRNA inhibition (SK-MEL-28, 4 µM) came out at 52%.

In the case of “CTCTATAGTGTTCCAG (sugars kkdddddddddkdkdk, PS)”, the target mRNA inhibition (MM.1R, 1 µM) amounted to 31%.

As to GTTCATACCCAATAGT (sugars k3 d10 k3, PS), the target mRNA inhibition (SK-MEL-28, 4 µM) worked out at 66%.

Regarding ATGAAAGTGTGTGCAA (sugars k3 d10 k3, PS), the target mRNA inhibition (SK-MEL-28, 4 µM) stood at 64%.

For the sequence ACTAATACCTACCTGC (sugars k3 d10 k3, PS), for the setting “SK-MEL-28, 4 µM”, the target mRNA inhibition came to 48%.

Regarding “ACTGTTACCGATGCTT (sugars kdddddddddkekeke, PS)”, the target mRNA inhibition (MM.1R, 1 µM) was -2% and 17%.

For the sequence AAATTAAAGAGCGCAT (sugars k3 d10 k3, PS), for the setting “SK-MEL-28, 4 µM”, the target mRNA inhibition came to 13%.

As for TTCTAGTCGCGCAAGT (sugars k3 d10 k3, PS), where the note is “MM.1R, 1 µM”, the target mRNA inhibition is -7%.

For TCCAGGTGGCTCAGCA (sugars k4 d8 k4, PS), the target mRNA inhibition (SK-MEL-28, 4 µM) turned out to be 34%.

For “GGCACATCAATGTTTT (sugars kddddddddddkekek, PS)”, for the setting “MM.1R, 1 µM”, the target mRNA inhibition was 28% and 25%.

Turning to CTTTGGGCACCAAAAG (sugars k3 d10 k3, PS), where the note is “MM.1R, 1 µM”, the target mRNA inhibition was -33%.

On to GTTGTCTGGCTAGCAG (sugars k3 d10 k3, PS), for which the target mRNA inhibition by setting is: (SK-MEL-28, 0.185 µM) 20%; (SK-MEL-28, 4 µM) 59%; (SK-MEL-28, 5 µM) 70%; (SK-MEL-28, 15 µM) 89%.

Regarding GCATTTTCCAGAAAAT (sugars k3 d10 k3, PS), the target mRNA inhibition is 13% (SK-MEL-28, 0.185 µM); 64% (SK-MEL-28, 4 µM); 74% (SK-MEL-28, 5 µM); 89% (SK-MEL-28, 15 µM).

For the sequence CCGCACGCAAGGCTCG (sugars k3 d10 k3, PS), under “SK-MEL-28, 4 µM”, the target mRNA inhibition came out at 16%.

Consider ATGAGAAACGGCCTGG (sugars k3 d10 k3, PS), for which, where the note is “SK-MEL-28, 4 µM”, the target mRNA inhibition was determined as 64%.

On to GCTCATGCCGAACTCT (sugars k3 d10 k3, PS), for which, where the note is “SK-MEL-28, 4 µM”, the target mRNA inhibition was found to be 19%.

TTGCATGGCTAATGAA (sugars k3 d10 k3, PS): the target mRNA inhibition (SK-MEL-28, 4 µM) came out at 42%.

As to GTGGGTCCCAAGATCG (sugars k3 d10 k3, PS), for the setting “SK-MEL-28, 4 µM”, the target mRNA inhibition turned out to be 40%.

Take GAGACCTACAAAATGC (sugars k3 d10 k3, PS): under “SK-MEL-28, 4 µM”, the target mRNA inhibition is 11%.

On to TATATAGAATTAGGTG (sugars k3 d10 k3, PS), for which the target mRNA inhibition (SK-MEL-28, 4 µM) was -16%.

For GACATTGGTACGGGAT (sugars k3 d10 k3, PS), under “SK-MEL-28, 4 µM”, the target mRNA inhibition stood at 36%.

For ATGTGGAGCTCCTCCT (sugars k3 d10 k3, PS), the target mRNA inhibition (SK-MEL-28, 4 µM) stood at 20%.

On to ACTTAACCCACATCAC (sugars k3 d10 k3, PS), for which the target mRNA inhibition (SK-MEL-28, 4 µM) is -22%.

On to TGAAGTGCTGTGTGGG (sugars k3 d10 k3, PS), for which the target mRNA inhibition (SK-MEL-28, 4 µM) is 57%.

Take TGGCTCATGGACATCT (sugars k3 d10 k3, PS): where the note is “SK-MEL-28, 4 µM”, the target mRNA inhibition amounted to 32%.

On to GGCCAATGATTTTGTT (sugars k3 d10 k3, PS), for which the target mRNA inhibition (SK-MEL-28, 4 µM) came out at 6%.

Take AATCAGAATGGCGAGT (sugars k3 d10 k3, PS): the target mRNA inhibition (SK-MEL-28, 4 µM) turned out to be 39%.

On to ACACTTTTAGAGAGGA (sugars k3 d10 k3, PS), for which the target mRNA inhibition reads like this: (MM.1R, 0.0625 µM) 32%; (MM.1R, 0.222 µM) 25% and 41%; (MM.1R, 0.25 µM) 41%; (MM.1R, 2 µM) 72% and 89%; (MM.1R, 4 µM) 74%; (SK-MEL-28, 4 µM) 63%.

With GGGAAGTGGACCCCAT (sugars k3 d10 k3, PS), under “SK-MEL-28, 4 µM”, the target mRNA inhibition was 9%.

For the sequence TGCACTCGCGCAAAGG (sugars k3 d10 k3, PS), the target mRNA inhibition (SK-MEL-28, 4 µM) was found to be 28%.

In the case of CCTGTCACCTGGCAAC (sugars k3 d10 k3, PS), the target mRNA inhibition (SK-MEL-28, 4 µM) came to 41%.

In the case of “CTCTATAGTGTTCCAG (sugars kkddddddddddkeke, PS)”, the target mRNA inhibition (MM.1R, 1 µM) amounted to 27%.

In the case of CTCCTACCCGCCTGCT (sugars k3 d10 k3, PS), the target mRNA inhibition (SK-MEL-28, 4 µM) was found to be 15%.

On to CCTTTTCAGAGTCCTG (sugars k3 d10 k3, PS), for which the target mRNA inhibition (SK-MEL-28, 4 µM) turned out to be 58%.

CAAGGAGATCCACCTG (sugars k3 d10 k3, PS): the target mRNA inhibition (SK-MEL-28, 4 µM) is -21%.

Consider AACGCAAGTCTGAATT (sugars k3 d10 k3, PS), for which the target mRNA inhibition (MM.1R, 1 µM) was found to be 3%.

As to ATAACACGGTGTTGAC (sugars k3 d10 k3, PS), the target mRNA inhibition (MM.1R, 1 µM) is 21%.

Take AGCTCTAGACAGAGGC (sugars k3 d10 k3, PS): the target mRNA inhibition (SK-MEL-28, 4 µM) came out at 35%.

In the case of “TTTATGTTAGCCAATT (sugars kddddddddddkekek, PS)”, the target mRNA inhibition (MM.1R, 1 µM) is 0% and -12%.

AGCATCCGCTTGGAGA (sugars k3 d10 k3, PS): for the setting “SK-MEL-28, 4 µM”, the target mRNA inhibition turned out to be 37%.

With CCCTTAGGAACGAAGA (sugars k3 d10 k3, PS), the target mRNA inhibition (SK-MEL-28, 4 µM) is -6%.

TATCAGGATCTCAAGG (sugars k3 d10 k3, PS): the target mRNA inhibition (SK-MEL-28, 4 µM) worked out at 6%.

With GCACAGAACACCTGAT (sugars k3 d10 k3, PS), the target mRNA inhibition (SK-MEL-28, 4 µM) stood at 56%.

For ATAGAATTAGGTGCTT (sugars k3 d10 k3, PS), the target mRNA inhibition reads like this: (MM.1R, 0.0625 µM) -5%; (MM.1R, 0.074 µM) -1%; (MM.1R, 0.222 µM) 33%; (MM.1R, 0.25 µM) 6%; (MM.1R, 0.666 µM) 11%; (MM.1R, 1 µM) 25%. The target mRNA inhibition turned out to be 8% (MM.1R, 2 µM); 56% (MM.1R, 4 µM); 64% (SK-MEL-28, 4 µM).

ACAAGTGCTAGGATTC (sugars k3 d10 k3, PS): the target mRNA inhibition (SK-MEL-28, 4 µM) stood at 67%.

For TATGACCCAGTGCTCT (sugars k3 d10 k3, PS), the target mRNA inhibition (SK-MEL-28, 4 µM) is 40%.

With “TTGGTTGGCTGGTCTT (sugars kddddddddddkekek, PS)”, the target mRNA inhibition (MM.1R, 1 µM) stood at 34%.

Consider GCACAATTCTCTGAGA (sugars k3 d10 k3, PS), for which the target mRNA inhibition (SK-MEL-28, 4 µM) is 34%.

Regarding “GGAAGTTTACACTGGA (sugars kdddddddddkekeke, PS)”, the target mRNA inhibition (MM.1R, 1 µM) turned out to be 32%.

Consider ATTTACAGCATCTAAG (sugars k3 d10 k3, PS), for which the target mRNA inhibition (SK-MEL-28, 4 µM) amounted to 47%.

Take ATAGTTAAGTACTTGG (sugars k3 d10 k3, PS): the target mRNA inhibition (SK-MEL-28, 4 µM) worked out at 48%.

For GTCCAGAGTCTTCAGA (sugars k3 d10 k3, PS), the target mRNA inhibition (SK-MEL-28, 4 µM) came out at 6%.
